What all share (assay type): biochemical
Assay [1] concerns the target T1, ROCK1 (Homo sapiens, UniProt Q13464). Kind of assay: In vitro inhibitory activity assay ROCK1 (Method B, ADP-Glo, 200 μM ATP). The conditions noted are these: ATP 200 μM, read-out: Method B ROCK 1 (Ki). The procedure: (§1) In Vitro Inhibitory Activity Assay Description ROCK1 and ROCK2
(§2) The effectiveness of compounds of the present invention to inhibit Rho kinase activity can be determined in a 10 μl assay containing 40 mM Tris pH7.5, 20 mM MgCl2 0.1 mg/mL BSA, 50 μM DTT and 2.5 μM peptide substrate (Myelin Basic Protein) using an ADP-Glo kit (Promega). Compounds were dissolved in DMSO such that the final concentration of DMSO was 1% in the assay. All reactions/incubations are performed at 25° C. Compound (2 μL) and either Rho kinase 1 or 2 (4 μl) were mixed and incubated for 30 min. Reactions were initiated by addition of ATP (4 μL) such that the final concentration of ATP in the assay was 200 μM. After a 1 hour incubation 10111 of ADP-Glo Reagent was added and after a further 45 minute incubation 20 μL of Kinase Detection Buffer was added and the mixture incubated for a further 30 minutes. The luminescent signal was measured on a luminometer. […] Compounds were tested in dose-response format and the inhibition of kinase activity was calculated at each concentration of compound. To determine the IC50 (concentration of compound required to inhibit 50% of the enzyme activity) data were fit to a plot of % inhibition vs Log10 compound concentration using a sigmoidal fit with a variable slope and fixing the maximum to 100% and the minimum to 0%. To determine the Ki values the Cheng-Prusoff equation was utilized (Ki=IC50/(1[S]/Km).

Assay [2] addresses T2, ROCK2 (Homo sapiens, UniProt O75116). Kind of assay: In vitro inhibitory activity assay ROCK2 (Method B, ADP-Glo, 200 μM ATP). Conditions: ATP 200 μM, read-out: Method B ROCK 2 (Ki). The procedure:
as §1, §2
A general note: ADP-Glo first removes unused ATP, then detects ADP through luciferase.

The next assay concerns the target PKA (Homo sapiens, UniProt P17612). In words: In vitro inhibitory activity assay for PKA (ADP-Glo), reported as selectivity ratio vs ROCK2. Conditions: Ki PKA divided by Ki ROCK2 (method B). The procedure: In vitro inhibitory activity assay description for PKA
The effectiveness of compounds of the present invention to inhibit PKA activity can be determined in a […], assay containing 40 mM Tris pH7.5, 20 mM MgCl2 0.1 mg/mL BSA, 50 μM DTT and 260 μM peptide substrate (kemptide) using an ADP-Glo kit (Promega). Compounds were dissolved in DMSO such that the final concentration of DMSO was 1% in the assay. All reactions/incubations are performed at 25° C. Compound and PKA enzyme (6 μl) were mixed and incubated for 30 min. Reactions were initiated by addition of ATP (4 μL) such that the final concentration of ATP in the assay was 10 μM. After a 30 minute incubation 10 μL of ADP-Glo Reagent was added and after a further 1 hour incubation 20 μL of Kinase Detection Buffer was added and the mixture incubated for a further 45 minutes. The luminescent signal was measured on a luminometer. […] Compounds were tested in dose-response format and the inhibition of kinase activity was calculated at each concentration of compound. To determine the IC50 (concentration of compound required to inhibit 50% of the enzyme activity) data were fit to a plot of % inhibition vs Log10 compound concentration using a sigmoidal fit with a variable slope and fixing the maximum to 100% and the minimum to 0%. To determine the Ki values the Cheng-Prusoff equation was utilized (Ki=IC50/(1+[S]/Km).
In vitro inhibitory activities for PKA were reported as selectivity ratio vs. ROCK2. Selectivity ratio PKA/ROCK2 was calculated by dividing the Ki value for PKA by Ki value of ROCK2 (method B) and reported into table 1.

The target in assay [3] is T1, ROCK1. In words: In vitro inhibitory activity assay ROCK1 (Method A, ADP-Glo, 10 μM ATP). Conditions: ATP 10 μM, read-out: Method A ROCK 1 (Ki). As to the method:
(§3) In vitro inhibitory activity assay description ROCK1 and ROCK2
as §2, with “(2 uL)” for “(2 μL)”, “was 10” for “was 200”, “incubation […]” for “incubation 10111”, “45 minutes” for “45 minute”, “20 uL” for “20 μL”, “utilized (Ki=IC50/(1+[S]/Km).” for “utilized (Ki=IC50/(1[S]/Km).”

In assay [4] the target is T2, ROCK2. Kind of assay: In vitro inhibitory activity assay ROCK2 (Method A, ADP-Glo, 10 μM ATP). Conditions: ATP 10 μM, read-out: Method A ROCK 2 (Ki). The procedure:
as §3
as §2, with “(2 uL)” for “(2 μL)”, “was 10” for “was 200”, “incubation […]” for “incubation 10111”, “45 minutes” for “45 minute”, “20 uL” for “20 μL”, “utilized (Ki=IC50/(1+[S]/Km).” for “utilized (Ki=IC50/(1[S]/Km).”

Usually Ki stands for a dissociation constant, usually derived from enzyme kinetics or from competition with a known ligand.

Bounds are passed on as bounds.

T2 sequence (O75116 whole entry): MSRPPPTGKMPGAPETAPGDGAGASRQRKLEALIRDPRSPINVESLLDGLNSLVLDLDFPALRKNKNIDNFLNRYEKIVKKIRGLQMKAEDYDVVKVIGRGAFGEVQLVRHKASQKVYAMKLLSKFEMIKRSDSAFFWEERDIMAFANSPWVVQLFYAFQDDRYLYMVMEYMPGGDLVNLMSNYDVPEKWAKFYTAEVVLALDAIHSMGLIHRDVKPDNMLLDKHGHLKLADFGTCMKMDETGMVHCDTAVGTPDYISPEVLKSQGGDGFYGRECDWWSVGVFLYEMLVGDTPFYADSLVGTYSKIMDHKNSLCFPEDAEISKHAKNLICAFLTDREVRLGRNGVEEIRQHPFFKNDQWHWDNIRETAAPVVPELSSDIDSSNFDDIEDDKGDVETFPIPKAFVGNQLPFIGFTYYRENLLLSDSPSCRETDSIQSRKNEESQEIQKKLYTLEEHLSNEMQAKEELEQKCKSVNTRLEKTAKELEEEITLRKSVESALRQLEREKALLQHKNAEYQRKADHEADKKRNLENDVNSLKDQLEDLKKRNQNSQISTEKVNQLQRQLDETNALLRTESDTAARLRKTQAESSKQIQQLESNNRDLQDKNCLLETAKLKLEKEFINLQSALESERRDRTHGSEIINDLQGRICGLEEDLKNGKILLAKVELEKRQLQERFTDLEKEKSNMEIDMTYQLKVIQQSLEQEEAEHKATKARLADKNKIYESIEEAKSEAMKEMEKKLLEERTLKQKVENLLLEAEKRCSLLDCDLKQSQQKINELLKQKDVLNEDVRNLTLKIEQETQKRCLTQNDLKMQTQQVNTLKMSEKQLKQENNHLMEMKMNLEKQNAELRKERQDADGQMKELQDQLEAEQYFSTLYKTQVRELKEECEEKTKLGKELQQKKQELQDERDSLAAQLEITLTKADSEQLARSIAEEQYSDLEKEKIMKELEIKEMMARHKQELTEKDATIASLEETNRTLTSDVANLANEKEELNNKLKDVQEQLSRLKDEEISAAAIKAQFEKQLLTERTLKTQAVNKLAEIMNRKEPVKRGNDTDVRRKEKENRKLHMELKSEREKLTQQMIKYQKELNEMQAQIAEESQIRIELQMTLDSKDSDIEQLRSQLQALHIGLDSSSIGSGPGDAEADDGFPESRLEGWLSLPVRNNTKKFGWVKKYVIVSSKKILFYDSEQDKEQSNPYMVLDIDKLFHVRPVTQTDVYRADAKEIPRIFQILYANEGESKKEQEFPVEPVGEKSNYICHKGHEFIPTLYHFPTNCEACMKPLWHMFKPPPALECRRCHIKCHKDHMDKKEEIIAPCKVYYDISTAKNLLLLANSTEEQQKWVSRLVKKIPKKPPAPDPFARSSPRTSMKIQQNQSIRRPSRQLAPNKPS
T1 sequence (Q13464 whole entry): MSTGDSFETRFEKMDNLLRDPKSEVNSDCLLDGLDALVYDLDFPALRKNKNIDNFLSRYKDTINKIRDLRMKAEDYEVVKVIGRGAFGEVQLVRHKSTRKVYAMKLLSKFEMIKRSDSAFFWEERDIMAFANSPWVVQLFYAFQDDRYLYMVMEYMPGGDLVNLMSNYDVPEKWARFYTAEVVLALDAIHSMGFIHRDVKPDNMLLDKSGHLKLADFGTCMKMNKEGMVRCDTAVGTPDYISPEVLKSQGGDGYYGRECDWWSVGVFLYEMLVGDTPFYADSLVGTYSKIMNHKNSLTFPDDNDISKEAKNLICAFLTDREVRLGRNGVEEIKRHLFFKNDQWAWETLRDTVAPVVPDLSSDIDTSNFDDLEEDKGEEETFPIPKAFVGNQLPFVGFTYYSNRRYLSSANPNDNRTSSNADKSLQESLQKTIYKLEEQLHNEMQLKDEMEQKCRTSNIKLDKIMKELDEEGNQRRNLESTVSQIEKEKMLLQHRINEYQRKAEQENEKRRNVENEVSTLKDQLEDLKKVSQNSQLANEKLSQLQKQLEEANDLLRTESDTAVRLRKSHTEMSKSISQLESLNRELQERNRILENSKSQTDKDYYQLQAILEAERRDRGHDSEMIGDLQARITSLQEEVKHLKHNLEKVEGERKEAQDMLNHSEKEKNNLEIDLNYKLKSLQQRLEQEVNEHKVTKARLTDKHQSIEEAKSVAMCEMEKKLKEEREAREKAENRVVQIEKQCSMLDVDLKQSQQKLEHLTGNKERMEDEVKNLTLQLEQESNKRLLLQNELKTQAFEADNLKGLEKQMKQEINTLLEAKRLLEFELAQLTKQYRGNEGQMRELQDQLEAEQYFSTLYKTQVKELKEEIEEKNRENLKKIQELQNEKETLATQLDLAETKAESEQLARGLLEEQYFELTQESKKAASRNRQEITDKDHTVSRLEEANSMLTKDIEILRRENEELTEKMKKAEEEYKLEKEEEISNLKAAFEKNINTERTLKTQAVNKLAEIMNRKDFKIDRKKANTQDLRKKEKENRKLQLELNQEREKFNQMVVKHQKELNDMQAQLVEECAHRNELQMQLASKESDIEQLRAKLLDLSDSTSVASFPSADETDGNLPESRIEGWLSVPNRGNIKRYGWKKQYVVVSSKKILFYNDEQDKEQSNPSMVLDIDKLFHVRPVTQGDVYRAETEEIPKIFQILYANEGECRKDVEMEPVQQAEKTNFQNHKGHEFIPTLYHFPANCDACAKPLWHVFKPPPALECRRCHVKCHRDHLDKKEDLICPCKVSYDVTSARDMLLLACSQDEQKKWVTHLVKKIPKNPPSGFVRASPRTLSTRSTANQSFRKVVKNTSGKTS

Take `O=C(NCC1CCCCO1)c1cccc(CNc2ncc(-c3cn[nH]c3)c3c2CCO3)c1` (racemic) [Example 11, 3-(((7-(1H-pyrazol-4-yl)-2,3-dihydrofuro[3,2-c]pyridin-4-yl)amino)methyl)-N-((tetrahydro-2H-pyran-2-yl)methyl)benzamide]: the Ki at ROCK1 [1] and at ROCK2 [2] was not above 3 nM each time. In addition, the “Ratio Ki PKA/ROCK2” value at PKA is on record as “*** (ratio≥10)”.
Turning to `O=C(NCC1CCCCO1)c1cccc(CNc2ncc(-c3cn[nH]c3)c3c2CCO3)c1` (single isomer, unassigned; enantiomer 1) [Example 55, 3-(((7-(1H-pyrazol-4-yl)-2,3-dihydrofuro[3,2-c]pyridin-4-yl)amino)methyl)-N-((tetrahydro-2H-pyran-2-yl)methyl)benzamide (Enantiomer 1)], the Ki at ROCK1 [1] and on ROCK2 [2] was not above 3 nM in each case. For the same compound, the “Ratio Ki PKA/ROCK2” value at PKA is reported as “*** (ratio≥10)”.
Consider `O=C(NCC1CCCCO1)c1cccc(CNc2ncc(-c3cn[nH]c3)c3c2CCO3)c1` (single isomer, unassigned; enantiomer 2) [Example 56, 3-(((7-(1H-pyrazol-4-yl)-2,3-dihydrofuro[3,2-c]pyridin-4-yl)amino)methyl)-N-((tetrahydro-2H-pyran-2-yl)methyl)benzamide (Enantiomer 2)], for which the Ki at ROCK1 [1] and on ROCK2 [2] was not above 3 nM throughout. The “Ratio Ki PKA/ROCK2” value on PKA is on record as “*** (ratio≥10)”.
As for `O=C(NC1CCN(C2CC2)CC1)c1cccc(CNc2ncc(-c3cn[nH]c3)c3c2CCO3)c1` [Example 1, 3-(((7-(1H-Pyrazol-4-yl)-2,3-dihydrofuro[3,2-c]pyridin-4-yl)amino)methyl)-N-(1-cyclopropylpiperidin-4-yl)benzamide], the Ki on ROCK1 [1] and on ROCK2 [2] was not above 3 nM each time. Further, on PKA, the “Ratio Ki PKA/ROCK2” value was “*** (ratio≥10)”.
As to `O=C(NCCCF)c1cccc(CNc2ncc(-c3cn[nH]c3)c3c2CCO3)c1` [Example 3, 3-(((7-(1H-pyrazol-4-yl)-2,3-dihydrofuro[3,2-c]pyridin-4-yl)amino)methyl)-N-(3-fluoropropyl)benzamide], the Ki at ROCK1 [1] and at ROCK2 [2] was 3 to 30 nM each time. The “Ratio Ki PKA/ROCK2” value on PKA was “*** (ratio≥10)”.
Regarding `O=C(NCC1CC1)c1cccc(CNc2ncc(-c3cn[nH]c3)c3c2CCO3)c1` [Example 5, 3-(((7-(1H-pyrazol-4-yl)-2,3-dihydrofuro[3,2-c]pyridin-4-yl)amino)methyl)-N-(cyclopropylmethyl)benzamide], the Ki on ROCK1 [1] and on ROCK2 [2] was 3 to 30 nM throughout. Moreover, the “Ratio Ki PKA/ROCK2” value at PKA is reported as “*** (ratio≥10)”.
For the compound `CC1(C)CC(NC(=O)c2cccc(CNc3ncc(-c4cn[nH]c4)c4c3CCO4)c2)CO1` (centres unmarked) [Example 6, 3-(((7-(1H-pyrazol-4-yl)-2,3-dihydrofuro[3,2-c]pyridin-4-yl)amino)methyl)-N-(5,5-dimethyltetrahydrofuran-3-yl)benzamide], the Ki at ROCK1 [1] and on ROCK2 [2] was 3 to 30 nM in each case. On PKA, the “Ratio Ki PKA/ROCK2” value was “*** (ratio≥10)”.
As to `O=C(NCc1cscn1)c1cccc(CNc2ncc(-c3cn[nH]c3)c3c2CCO3)c1` [Example 14, 3-(((7-(1H-pyrazol-4-yl)-2,3-dihydrofuro[3,2-c]pyridin-4-yl)amino)methyl)-N-(thiazol-4-ylmethyl)benzamide], the Ki at ROCK1 [1] and at ROCK2 [2] was not above 3 nM in each case.
`CN(C)CCn1ncc2cc(C(=O)Nc3cccc(CNc4ncc(-c5cn[nH]c5)c5c4CCO5)c3)ccc21` [Example 43, N-(3-(((7-(1H-pyrazol-4-yl)-2,3-dihydrofuro[3,2-c]pyridin-4-yl)amino)methyl)phenyl)-1-(2-(dimethylamino)ethyl)-1H-indazole-5-carboxamide]: the Ki at ROCK1 [3], on ROCK1 [1], on ROCK2 [2] and on ROCK2 [4] was not above 3 nM throughout.
In the case of `CN1CCC(n2ncc3cc(C(=O)Nc4cccc(CNc5ncc(-c6cn[nH]c6)c6c5CCO6)c4)ccc32)CC1` [Example 44, N-(3-(((7-(1H-pyrazol-4-yl)-2,3-dihydrofuro[3,2-c]pyridin-4-yl)amino)methyl)phenyl)-1-(1-methylpiperidin-4-yl)-1H-indazole-5-carboxamide], the inhibitory constant (Ki) on ROCK1 [3], on ROCK1 [1], at ROCK2 [2] and on ROCK2 [4] was not above 3 nM in each case.
Regarding `CN1CCc2cc(C(=O)Nc3cccc(CNc4ncc(-c5cn[nH]c5)c5c4CCO5)c3)ccc2C1` [Example 45, N-(3-(((7-(1H-pyrazol-4-yl)-2,3-dihydrofuro[3,2-c]pyridin-4-yl)amino)methyl)phenyl)-2-methyl-1,2,3,4-tetrahydroisoquinoline-6-carboxamide], the Ki on ROCK1 [3], on ROCK1 [1], at ROCK2 [2] and at ROCK2 [4] was not above 3 nM each time.
`O=C(Nc1cccc(CNc2ncc(-c3cn[nH]c3)c3c2CCO3)c1)c1ccc2c(cnn2CCN2CCOCC2)c1` [Example 46, N-(3-(((7-(1H-pyrazol-4-yl)-2,3-dihydrofuro[3,2-c]pyridin-4-yl)amino)methyl)phenyl)-1-(2-morpholinoethyl)-1H-indazole-5-carboxamide]: the Ki on ROCK1 [3], at ROCK1 [1], on ROCK2 [2] and on ROCK2 [4] was not above 3 nM each time.
In the case of `O=C(Nc1cccc(CNc2ncc(-c3cn[nH]c3)c3c2CCO3)c1)c1ncc(CN2CCCC2)s1` [Example 48, N-(3-(((7-(1H-pyrazol-4-yl)-2,3-dihydrofuro[3,2-c]pyridin-4-yl)amino)methyl)phenyl)-5-(pyrrolidin-1-ylmethyl)thiazole-2-carboxamide], the inhibitory constant (Ki) at ROCK1 [3], on ROCK1 [1], at ROCK2 [2] and on ROCK2 [4] was not above 3 nM throughout.
Regarding `CNC(=O)c1cccc(CNc2ncc(-c3cncs3)c3c2CCO3)c1` [Example A, N-Methyl-3-(((7-(thiazol-5-yl)-2,3-dihydrofuropyridin-4-yl)amino)methyl)benzamide, reference compound], the inhibition constant Ki on ROCK1 [1] and on ROCK2 [2] was more than 30 nM in each case.
For the compound `CNC(=O)c1cccc(CNc2ncc(-c3cnco3)c3c2CCO3)c1` [Example B, N-Methyl-3-(((7-(oxazol-5-yl)-2,3-dihydrofuro[3,2-c]pyridin-4-yl)amino)methyl)benzamide, reference compound], the values for the Ki on ROCK1 [1] and at ROCK2 [2] were more than 30 nM and 3 to 30 nM, respectively.

These data come from patent US20240082223A1, “DIHYDROFUROPYRIDINE DERIVATIVES AS RHO- KINASE INHIBITORS” (CHIESI FARMACEUTICI S.P.A., priority 2020, published 2024).
